{"source": "ChEMBL document CHEMBL2034827", "about": "“Identification of novel antimalarial chemotypes via chemoinformatic compound selection methods for a high-throughput screening program against the novel malarial target, PfNDH2: increasing hit rate via virtual screening methods” (J Med Chem, 2012)", "key": {"Plasmodium falciparum": {"system": "Plasmodium falciparum", "test": "Antimalarial activity against blood stage form of Plasmodium falciparum 3D7 infected in human erythrocytes after 48 hrs by SYBR Green-based fluorometry", "format": "functional, organism-based", "details": "3D7, 48 h"}, "[1]": {"test": "Inhibition of recombinant Plasmodium falciparum NDH2 expressed in Escherichia coli ANN0222 by spectrophotometry"}}}
{"compound": "O=C(Nc1ccc(F)c(F)c1)C1CCC(Cn2cnc3ccccc3c2=O)CC1", "note": "(stereo unspecified)", "values": [{"measurement": "IC50", "setting": "Plasmodium falciparum", "result": 2080, "unit": "nM"}, {"measurement": "IC50", "setting": "[1]", "result": 1360, "unit": "nM"}]}
{"compound": "CC(C)(Cc1cc(=O)c2ccccc2[nH]1)C1CCCCC1", "values": [{"measurement": "IC50", "setting": "Plasmodium falciparum", "result": 3800, "unit": "nM"}, {"measurement": "IC50", "setting": "[1]", "result": 78, "unit": "nM"}]}
{"compound": "CCCCCCCCCCCCc1cc(=O)c2ccccc2n1O", "values": [{"measurement": "IC50", "setting": "[1]", "result": 70, "unit": "nM"}]}
{"compound": "CCn1cc(C(=O)NCc2ccc(Cl)cc2)c(=O)c2cc(F)c(N3CCN(C(=O)c4ccco4)CC3)cc21", "values": [{"measurement": "IC50", "setting": "Plasmodium falciparum", "result": 5000, "unit": "nM"}, {"measurement": "IC50", "setting": "[1]", "result": 295, "unit": "nM"}]}
{"compound": "CSc1nc2cc(Oc3ccc(Cl)c4ccccc34)c(Cl)cc2[nH]1", "values": [{"measurement": "IC50", "setting": "Plasmodium falciparum", "result": 2080, "unit": "nM"}, {"measurement": "IC50", "setting": "[1]", "result": 1040, "unit": "nM"}]}
{"compound": "O=C1NC(=O)N(C2CCCCC2)C(=O)/C1=C/c1c(-c2ccccc2)[nH]c2ccccc12", "values": [{"measurement": "IC50", "setting": "Plasmodium falciparum", "result": 5560, "unit": "nM"}, {"measurement": "IC50", "setting": "[1]", "result": 512, "unit": "nM"}]}
